Consider 20 molecules from article PMC3230330 (Bioorganic & medicinal chemistry, 2011).

The target in experiment [1] is T1, BoNT/A LC (Clostridium botulinum, UniProt P0DPI0). As to the kind of experiment: biochemical. The class given is biochemical.
In a further experiment the target is Anthrax LF (Bacillus anthracis, UniProt P15917). As to the kind of experiment: biochemical.
Experiment [2] concerns the target T1, BoNT/A LC. The class given is biochemical.
A further experiment deals with human MMP-9 (Homo sapiens, UniProt P14780). It is filed as biochemical.
For experiment [3], the target named is T1, BoNT/A LC. The class given is biochemical. The source holds these as a separate data set.
In experiment [4] the target is T1, BoNT/A LC. The conditions noted are these: cited from earlier work.
The target of the next experiment is human MMP-1 (Homo sapiens, UniProt P03956). It is filed as biochemical.
In a further experiment the target is human MMP-2 (Homo sapiens, UniProt P08253). It is filed as biochemical.
The subject of another experiment is BoNT/B LC. The conditions noted are these: cited from earlier work.

pIC50: −log10 of the molar value. Where two headings read alike, the source gives them in different places.

T1 sequence (P0DPI0 2-448 limits assumed): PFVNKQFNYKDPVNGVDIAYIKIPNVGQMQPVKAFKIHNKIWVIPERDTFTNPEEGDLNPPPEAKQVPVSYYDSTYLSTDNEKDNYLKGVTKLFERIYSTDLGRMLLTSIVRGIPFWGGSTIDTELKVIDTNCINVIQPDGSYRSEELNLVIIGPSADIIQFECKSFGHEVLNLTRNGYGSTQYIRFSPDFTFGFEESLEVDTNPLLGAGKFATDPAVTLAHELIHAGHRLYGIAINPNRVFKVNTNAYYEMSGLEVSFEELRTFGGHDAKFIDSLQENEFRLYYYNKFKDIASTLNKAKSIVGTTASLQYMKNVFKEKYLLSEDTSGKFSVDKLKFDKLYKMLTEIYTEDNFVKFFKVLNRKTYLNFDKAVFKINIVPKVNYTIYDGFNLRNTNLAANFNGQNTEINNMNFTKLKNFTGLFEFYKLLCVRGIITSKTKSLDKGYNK
Sequence of Anthrax LF (P15917 34-809 limits assumed): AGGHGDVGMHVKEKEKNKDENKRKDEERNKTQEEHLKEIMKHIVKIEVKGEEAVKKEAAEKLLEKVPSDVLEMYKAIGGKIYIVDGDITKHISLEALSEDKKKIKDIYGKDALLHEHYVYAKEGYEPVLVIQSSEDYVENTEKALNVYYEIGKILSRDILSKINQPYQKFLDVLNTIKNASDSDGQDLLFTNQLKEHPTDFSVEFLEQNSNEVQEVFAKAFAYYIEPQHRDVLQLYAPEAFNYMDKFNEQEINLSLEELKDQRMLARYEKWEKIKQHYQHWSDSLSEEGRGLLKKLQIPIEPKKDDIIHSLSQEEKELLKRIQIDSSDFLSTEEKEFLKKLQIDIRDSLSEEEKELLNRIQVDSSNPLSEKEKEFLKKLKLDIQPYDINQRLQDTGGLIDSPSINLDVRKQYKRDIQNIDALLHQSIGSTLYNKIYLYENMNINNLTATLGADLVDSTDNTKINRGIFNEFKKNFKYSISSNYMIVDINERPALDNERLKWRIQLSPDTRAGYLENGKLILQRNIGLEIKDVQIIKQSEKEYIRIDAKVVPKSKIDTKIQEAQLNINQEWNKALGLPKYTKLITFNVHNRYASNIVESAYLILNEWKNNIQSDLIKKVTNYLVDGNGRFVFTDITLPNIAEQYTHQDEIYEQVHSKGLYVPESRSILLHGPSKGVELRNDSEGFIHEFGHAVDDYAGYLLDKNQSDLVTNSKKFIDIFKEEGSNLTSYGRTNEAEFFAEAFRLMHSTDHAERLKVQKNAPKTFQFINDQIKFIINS
Sequence of human MMP-1 (P03956 100-469): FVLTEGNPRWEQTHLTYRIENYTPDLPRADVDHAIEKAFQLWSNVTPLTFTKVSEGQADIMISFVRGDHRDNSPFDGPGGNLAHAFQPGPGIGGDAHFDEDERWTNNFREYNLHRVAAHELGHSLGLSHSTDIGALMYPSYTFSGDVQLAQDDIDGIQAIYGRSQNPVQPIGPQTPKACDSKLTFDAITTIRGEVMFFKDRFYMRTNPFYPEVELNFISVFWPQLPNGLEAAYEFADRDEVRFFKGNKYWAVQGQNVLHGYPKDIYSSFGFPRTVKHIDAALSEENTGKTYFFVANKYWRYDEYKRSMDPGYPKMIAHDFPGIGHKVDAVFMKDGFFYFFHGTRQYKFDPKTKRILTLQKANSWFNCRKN
Sequence of human MMP-9 (P14780 94-707): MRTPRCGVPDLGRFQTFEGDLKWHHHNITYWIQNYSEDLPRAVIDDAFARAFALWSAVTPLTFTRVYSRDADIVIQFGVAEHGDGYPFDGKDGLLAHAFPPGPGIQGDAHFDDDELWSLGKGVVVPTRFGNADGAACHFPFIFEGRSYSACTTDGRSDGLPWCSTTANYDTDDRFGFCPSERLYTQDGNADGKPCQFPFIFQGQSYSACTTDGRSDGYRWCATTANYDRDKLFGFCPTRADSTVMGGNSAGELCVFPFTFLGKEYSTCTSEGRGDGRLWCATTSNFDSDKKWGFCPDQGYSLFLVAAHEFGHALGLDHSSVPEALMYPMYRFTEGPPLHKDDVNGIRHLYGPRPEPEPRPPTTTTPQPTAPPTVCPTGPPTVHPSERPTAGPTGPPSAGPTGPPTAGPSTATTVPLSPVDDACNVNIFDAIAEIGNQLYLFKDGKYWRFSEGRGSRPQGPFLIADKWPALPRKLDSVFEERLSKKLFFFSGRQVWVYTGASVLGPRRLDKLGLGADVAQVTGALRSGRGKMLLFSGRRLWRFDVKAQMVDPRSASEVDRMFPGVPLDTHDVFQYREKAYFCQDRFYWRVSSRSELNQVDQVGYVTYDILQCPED
Sequence of human MMP-2 (P08253 110-660): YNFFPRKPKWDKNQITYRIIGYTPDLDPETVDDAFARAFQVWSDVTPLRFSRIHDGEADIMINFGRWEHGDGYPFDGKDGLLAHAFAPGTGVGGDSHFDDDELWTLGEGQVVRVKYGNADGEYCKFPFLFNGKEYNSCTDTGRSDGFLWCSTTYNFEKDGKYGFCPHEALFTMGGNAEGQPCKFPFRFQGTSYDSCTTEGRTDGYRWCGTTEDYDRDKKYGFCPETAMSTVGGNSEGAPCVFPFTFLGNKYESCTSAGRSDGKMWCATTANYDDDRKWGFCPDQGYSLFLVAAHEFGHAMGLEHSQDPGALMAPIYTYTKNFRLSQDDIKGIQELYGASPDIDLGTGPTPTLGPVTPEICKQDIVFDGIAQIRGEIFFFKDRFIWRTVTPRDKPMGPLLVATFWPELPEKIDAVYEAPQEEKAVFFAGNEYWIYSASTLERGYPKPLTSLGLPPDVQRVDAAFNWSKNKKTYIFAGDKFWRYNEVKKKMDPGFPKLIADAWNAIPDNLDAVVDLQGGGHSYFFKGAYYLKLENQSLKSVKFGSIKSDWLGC

Take “2-(1-Cyano-2-phenylvinyl)benzimidazole [Compound 8a]”: the “BoNT/A LC inhibitory potency (in words)” value on BoNT/A LC [1] is “eliminated inhibitory potency”.

As for `Cn1c(/C(C#N)=C/c2ccc(-c3cccs3)s2)[n+](C)c2ccccc21.[I-]` [Compound 15, 2-(2-(2,2'-Bithiophen-5-yl)-1-cyanovinyl)-1,3-dimethyl-1H-benzo[d]imidazol-3-ium iodide], the “BoNT/A LC inhibitory potency (in words)” value at BoNT/A LC [1] is “detrimental to potency”.

With `N#C/C(=C\c1ccc(-c2ccccc2)cc1)c1nc2ccccc2[nH]1` [Compound 8i, 2-(1H-Benzo[d]imidazol-2-yl)-3-(biphenyl-4-yl)acrylonitrile], the “BoNT/A LC inhibitory potency (in words)” value at BoNT/A LC [1] was “significantly lower potency with respect to 4”.

`COc1cc(/C=C(\C#N)c2nc3ccccc3[nH]2)cc(Cl)c1O` [Compound 8g, 2-[1-Cyano-2-(3-chloro-5-methoxy-4-hydroxyphenyl)vinyl]benzimidazole]: the “BoNT/A LC inhibitory potency (in words)” value on BoNT/A LC [1] was “significantly decreased or diminished activity”.

Turning to `N#C/C(=C\c1ccc(-c2cccs2)s1)c1nc2ccccc2s1` [Compound 14b, 3-(2,2'-Bithiophen-5-yl)-2-(benzo[d]thiazol-2-yl)acrylonitrile], the “BoNT/A LC inhibitory potency (in words)” value at BoNT/A LC [1] was “eliminated inhibitory potency”.

As for `N#CC(=Cc1ccc(-n2ccnc2)cc1)c1nc2ccccc2[nH]1` [Compound 8j, 3-(4-(1H-Imidazol-1-yl)phenyl)-2-(1H-benzo[d]imidazol-2-yl)acrylonitrile], the pIC50 – broadly, the IC50 on a negative log10 scale, so that one unit is a factor of ten – is less than 4.00 at Anthrax LF and 4.14 at BoNT/A LC [1]. In addition, on BoNT/A LC [1], the “BoNT/A LC inhibitory potency (in words)” value was “significantly lower potency with respect to 4”.

For `Cc1ccc(/C=C(\C#N)c2nc3ccccc3[nH]2)s1` [Compound 12a, 2-(1H-Benzo[d]imidazol-2-yl)-3-(5-methylthiophen-2-yl)acrylonitrile], at BoNT/A LC [1], the “BoNT/A LC inhibitory potency (in words)” value was “no BoNT/A LC inhibition”.

Regarding `COc1cc(C=C(C#N)c2nc3ccccc3[nH]2)cc(Br)c1O` [Compound 8h, 2-[1-Cyano-2-(3-bromo-5-methoxy-4-hydroxyphenyl)vinyl]benzimidazole], the negative-log IC50 (pIC50) against Anthrax LF was less than 4.00. Besides, at BoNT/A LC [1], the “BoNT/A LC inhibitory potency (in words)” value is on record as “significantly decreased or diminished activity” and the negative-log IC50 (pIC50) was 4.03.

“2-[1-Cyano-2-(2,4-dichloropyrimidin-3-yl)vinyl]-benzimidazole [Compound 10b]”: on Anthrax LF (read-out: Anthrax LF IC50), the pIC50 was less than 4.00.

On to `COc1ccc(/C=C(\C#N)c2nc3ccccc3[nH]2)cc1OC` [Compound 8f, 2-(1H-Benzo[d]imidazol-2-yl)-3-(3,4-dimethoxyphenyl)acrylonitrile], for which, on BoNT/A LC [1], the “BoNT/A LC inhibitory potency (in words)” value is “eliminated inhibitory potency”.

Take `N#C/C(=C\c1cccs1)c1nc2ccccc2[nH]1` [Compound 12c, 2-(1H-Benzo[d]imidazol-2-yl)-3-(thiophen-2-yl)acrylonitrile]: the “BoNT/A LC inhibitory potency (in words)” value at BoNT/A LC [1] is “no BoNT/A LC inhibition”.

As to `N#C/C(=C\c1ccc(-c2cccs2)s1)c1cc2ccccc2[nH]1` [Compound 14a, 3-(2,2'-Bithiophen-5-yl)-2-(1H-indol-2-yl)acrylonitrile], the “BoNT/A LC inhibitory potency (in words)” value at BoNT/A LC [1] is given as “eliminated inhibitory potency”.

For the molecule `N#C/C(=C\c1ccc(-c2cccs2)o1)c1nc2ccccc2[nH]1` [Compound 12e, 2-(1H-Benzo[d]imidazol-2-yl)-3-(5-(thiophen-2-yl)furan-2-yl)acrylonitrile hemiacetate], the “BoNT/A LC inhibitory potency (in words)” value on BoNT/A LC [1] is on record as “no activity was observed”.

Consider `Cc1cc(/C=C(\C#N)c2nc3ccccc3[nH]2)sc1C` [Compound 12b, 2-(1H-Benzo[d]imidazol-2-yl)-3-(4,5-dimethylthiophen-2-yl)acrylonitrile], for which the “BoNT/A LC inhibitory potency (in words)” value on BoNT/A LC [1] was “no BoNT/A LC inhibition”.

Regarding `N#C/C(=C\c1ccc(-c2ccco2)s1)c1nc2ccccc2[nH]1` [Compound 12d, 2-(1H-Benzo[d]imidazol-2-yl)-3-(5-(furan-2-yl)thiophen-2-yl)acrylonitrile], the “BoNT/A LC inhibitory potency (in words)” value at BoNT/A LC [1] is “approximately two-fold less potent than 5”.

Take `COc1ccc(/C=C(\C#N)c2nc3ccccc3[nH]2)cc1I` [Compound 4]: at BoNT/A LC [2], the Inactivated by cysteine result is given as “inactivated”, the Inactivated by glutathione result is on record as “inactivated” and the “Inactivated by zinc chelation” value is on record as “neither are metal chelating agents”. Moreover, on human MMP-9, the “MMP-9 IC50” value was “neither compound inhibited”. The “manner of BoNT/A LC inhibition” value on BoNT/A LC [3] was “time-dependent”. Moreover, the “kinetics with respect to the substrate” value on BoNT/A LC [4] is recorded as “noncompetitive”. The “MMP-1 IC50” value at human MMP-1 is given as “neither compound inhibited”. In addition, the “MMP-2 IC50” value on human MMP-2 was “neither compound inhibited”. Besides, the “BoNT/B LC FRET IC50” value in the experiment with BoNT/B LC is “neither 4 nor 5 inhibited”.

As for `COc1cc(C=C(C#N)c2nc3ccccc3[nH]2)cc(O)c1OC` [Compound 8k, 2-(1H-Benzo[d]imidazol-2-yl)-3-(3-hydroxy-4,5-dimethoxyphenyl)acrylonitrile], the pIC50 on Anthrax LF and on BoNT/A LC [1] was less than 4.00 each time. The “BoNT/A LC inhibitory potency (in words)” value at BoNT/A LC [1] is “significantly decreased or diminished activity”.

As for `N#C/C(=C\c1ccc(-c2cccs2)s1)c1ccc2ccccc2n1` [Compound 14d, 3-(2,2'-Bithiophen-5-yl)-2-(quinolin-2-yl)acrylonitrile], on BoNT/A LC [1], the “BoNT/A LC inhibitory potency (in words)” value is on record as “eliminated inhibitory potency”.

As to `N#C/C(=C\c1ccc(-c2cccs2)s1)c1nc2ccccc2o1` [Compound 14c, 3-(2,2'-Bithiophen-5-yl)-2-(benzo[d]oxazol-2-yl)acrylonitrile], the “BoNT/A LC inhibitory potency (in words)” value on BoNT/A LC [1] is “eliminated inhibitory potency”.

As to `N#C/C(=C\c1ccc(-c2cccs2)s1)c1nc2ccccc2[nH]1` [Compound 5, 3-(2,2'-Bithiophen-5-yl)-2-(1H-benzo[d]imidazol-2-yl)acrylonitrile], on BoNT/A LC [2], the Inactivated by cysteine result is reported as “no significant, non-specific reactivity”; the Inactivated by glutathione entry is recorded as “no significant, non-specific reactivity”; the “Inactivated by zinc chelation” value is reported as “neither are metal chelating agents”. Besides, the “MMP-9 IC50” value on human MMP-9 is listed as “neither compound inhibited”. Besides, on BoNT/A LC [3], the “manner of BoNT/A LC inhibition” value was “time-dependent”. For the same molecule, the “kinetics with respect to the substrate” value at BoNT/A LC [4] is given as “noncompetitive”. Besides, the “MMP-1 IC50” value on human MMP-1 is on record as “neither compound inhibited”. The “MMP-2 IC50” value at human MMP-2 is given as “neither compound inhibited”. The “BoNT/B LC FRET IC50” value with BoNT/B LC is “neither 4 nor 5 inhibited”.
